As usually defined, the pIC50 is the IC50 on a negative log10 scale, so that one unit is a factor of ten.

Each structure is given as a SMILES string. pIC50: −log10 of the molar value.

For the test, the target named is T1, chimeric receptor containing the EGFR extracellular domain and intracellular HER2 kinase domain (Homo sapiens, UniProt P04626).
T1 construct: fused on or other part: EGFR ectodomain + HER2 intracellular part, ATP-site indolinones: HER2's kinase
T1 sequence (P04626 720-1255 limits assumed, change not shown): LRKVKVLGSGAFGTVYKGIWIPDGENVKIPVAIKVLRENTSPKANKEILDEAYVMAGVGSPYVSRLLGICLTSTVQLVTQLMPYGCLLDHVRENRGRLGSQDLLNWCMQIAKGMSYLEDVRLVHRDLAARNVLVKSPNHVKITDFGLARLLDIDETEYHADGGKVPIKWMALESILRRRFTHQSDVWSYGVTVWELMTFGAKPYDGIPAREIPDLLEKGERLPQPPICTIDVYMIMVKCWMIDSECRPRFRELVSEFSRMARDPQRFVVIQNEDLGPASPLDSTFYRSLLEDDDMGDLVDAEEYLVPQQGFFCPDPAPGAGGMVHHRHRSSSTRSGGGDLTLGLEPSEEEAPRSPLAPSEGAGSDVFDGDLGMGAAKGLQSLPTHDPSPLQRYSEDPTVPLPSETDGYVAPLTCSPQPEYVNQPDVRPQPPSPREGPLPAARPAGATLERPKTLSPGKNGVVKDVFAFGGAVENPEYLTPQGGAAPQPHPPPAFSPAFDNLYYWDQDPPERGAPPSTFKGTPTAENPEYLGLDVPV
In words: EGF Receptor-HER2 chimeric receptor assay in whole cells (ELISA). The class given is cell-based. As to conditions: read-out: HER-2 kinase IC50. The protocol:
EGF Receptor-HER2 Chimeric Receptor Assay In Whole Cells.
HER2 kinase activity in whole EGFR-NIH3T3 cells are measured as described below:
• a. […] 05-101 (UBI) (a monoclonal antibody recognizing an EGFR extracellular domain). • c. Anti-phosphotyrosine antibody (anti-Ptyr) (polyclonal) (see, Fendley, et al., supra). • d. Detection antibody: Goat anti-rabbit IgG horseradish peroxidase conjugate, TAGO, Inc., Burlingame, Calif. • e. TBST buffer:
• h. Stock reagents of:
Pre-coat ELISA Plate • 1. […] Coated plates are good for up to 10 days when stored at 4° C. • 2. On day of use, remove coating buffer and replace with 100 μl blocking buffer (5% Carnation Instant Non-Fat Dry Milk in PBS). Incubate the plate, shaking, at room temperature (about 23° C. to 25° C.) for 30 minutes. Just prior to use, remove blocking buffer and wash plate 4 times with TBST buffer.
Seeding Cells • 1. An NIH3T3 cell line overexpressing a chimeric receptor containing the EGFR extracellular domain and intracellular HER2 kinase domain can be used for this assay. • 2. Choose dishes having 80-90% confluence for the experiment. Trypsinize cells and stop reaction by adding 10% fetal bovine serum. Suspend cells in DMEM medium (10% CS DMEM medium) and centrifuge once at 1500 rpm, at room temperature for 5 minutes. • 3. Resuspend cells in seeding medium (DMEM, 0.5% bovine serum), and count the cells using trypan blue. Viability above 90% is acceptable. Seed cells in DMEM medium (0.5% bovine serum) at a density of 10,000 cells per well, 100 μl per well, in a 96 well microtiter plate. Incubate seeded cells in 5% CO2. at 37° C. for about 40 hours.
Assay Procedures • 1. Check seeded cells for contamination using an inverted microscope. Dilute drug stock (10 mg/ml in DMSO) 1:10 in DMEM medium, then transfer 5 μl to a […] well for a final drug dilution of 1:200 and a final DMSO concentration of 1%. Control wells receive DMSO alone. Incubate in 5% CO2 at 37° C. for two hours. • 2. Prepare EGF ligand: dilute stock EGF in DMEM so that upon transfer of 10 μl dilute EGF (1:12 dilution), 100 nM final concentration is attained. • 3. Prepare fresh HNTG* sufficient for 100 μl per well, and place on ice.
• 4. After 120 minutes incubation with drug, add prepared […] ligand to cells, 10 μl per well, to a final concentration of 100 nM. Control wells receive DMEM alone. Incubate with shaking, at room temperature, for 5 minutes. • 5. Remove drug, EGF, and DMEM. Wash cells twice with PBS. Transfer HNTG* to cells, 100 μl per well. Place on ice for 5 minutes. Meanwhile, remove blocking buffer from other ELISA plate and wash with TBST as described above. • 6. With a pipette tip securely fitted to a micropipettor, scrape cells from plate and homogenize cell material by repeatedly aspirating and dispensing the HNTG* lysis buffer. Transfer lysate to a coated, blocked, and washed ELISA plate. Incubate shaking at room temperature for one hour. • 7. Remove lysate and wash 4 times with TBST. Transfer freshly diluted anti-Ptyr antibody to ELISA plate at 100 μl per well. Incubate shaking at room temperature for 30 minutes in the presence of the anti-Ptyr antiserum (1:3000 dilution in TBST). • 8. Remove the anti-Ptyr antibody and wash 4 times with TBST. Transfer the freshly diluted TAGO anti-rabbit IgG antibody to the ELISA plate at 100 μl per well. Incubate shaking at room temperature for 30 minutes (anti-rabbit IgG antibody: 1:3000 dilution in TBST). • 9. Remove TAGO detection antibody and wash 4 times with TBST. Transfer freshly prepared ABTS/H2O2 solution to ELISA plate, 100 μl per well. Incubate shaking at room temperature for 20 minutes. (ABTS/H2O2 solution: 1.0 μl 30% H2O2 in 10 ml ABTS stock). • 10. Stop reaction by adding 50 μl 5N H2SO4 (optional), and determine O.D. at 410 nm. • 11. The maximal phosphotyrosine signal is determined by subtracting the value of the negative controls from the positive controls. […]
In general terms: An ELISA detects its analyte on a solid surface through an enzyme-linked reagent.
Regarding `COc1cc(/C=C2/C(=O)Nc3ccccc32)c(-c2ccc3ccccc3c2)cc1OC` [Example 62, 3-(4,5-Dimethoxy-2-naphthalen-2-ylbenzylidene)-1,3-dihydroindol-2-one], the negative logarithm of the IC50 (pIC50) is less than 4.00. Take `CCc1ccc2c(c1)/C(=C\c1cc(C(C)C)c(OC)c(C(C)C)c1)C(=O)N2` [Example 28, 3-(3,5-Diisopropyl-4-methoxbenzylidene)-5-ethyl-1,3-dihydroindol-2-one]: the pIC50 is 4.77. In the case of `CC(C)c1cc(/C=C2/C(=O)Nc3ccc(Br)cc32)cc(C(C)C)c1OCCN1CCOCC1` [Example 57, 5-Bromo-3-[3,5-diisopropyl-4-(2-morpholin-4-ylethoxy)benzylidene]-1,3-dihydroindol-2-one] it was less than 4.00; in that of `CNS(=O)(=O)c1ccc2c(c1)C(=Cc1[nH]c3ccccc3c1C)C(=O)N2` (racemic) [Example 154, 3-(3-Methyl-1H-indol-2-ylmethylene)-2-oxo-2,3-dihydro-1H-indole-5-sulfonic acid methylamide], less than 4.00. Next, `COc1cccc(-c2cc(OC)c(OC)cc2/C=C2/C(=O)Nc3ccc(Cl)cc32)c1` [Example 61, 5-Chloro-3-(4,5-3′-Trimethoxybiphenyl-2-ylmethylene)-1,3-dihydroindol-2-one]: less than 4.00; `O=C1Nc2ncccc2/C1=C\c1ccc2c(c1)CCO2` [Example 73, 3-(2,3-Dihydrobenzofuran-5-ylmethylene)-1,3-dihydropyrrolo[2,3-b]pyridin-2-one]: less than 4.30.

`CC(=O)Nc1ccc2c(c1)NC(=O)/C2=C/c1ccc(OCCN2CCOCC2)c(C2CCCCC2)c1` [Example 16, N-{3-[3-Cyclohexyl-4-(2-morpholin-4-ylethoxy)-benzylidene]-2-oxo-2,3-dihydro-1H-indol-6-yl}-acetamide]: the negative logarithm of the IC50 (pIC50) is 5.00. Next, `COc1ccc(/C=C2/C(=O)Nc3ccc(Cl)cc32)cc1-c1cccnc1` [Example 60]: less than 4.00.

With `COc1c(C(C)C)cc(/C=C2\C(=O)Nc3cccc(C)c32)cc1C(C)C` [Example 53, 3-(3,5-Diisopropyl-4-methoxybenzylidene)-4-methyl-1,3-dihydroindol-2-one], the negative-log IC50 (pIC50) was 4.09. Regarding `COc1cc(/C=C2/C(=O)Nc3ccccc32)c(-c2cccs2)cc1OC` [Example 39, 3-(4,5-Dimethoxy-2-thiophen-2-ylbenzylidene)-1,3-dihydroindol-2-one], the pIC50 was 4.47. As for `O=C1Nc2ccc(Cl)cc2/C1=C\c1ccc2c(c1)CCO2` [Example 14, 5-Chloro-3-(2,3-dihydro-benzofuran-5-ylmethylene)-1,3-dihydroindol-2-one], the pIC50 is 4.64. In the case of `COc1ccc(/C=C2/C(=O)Nc3cc(NC(C)=O)ccc32)cc1-c1ccsc1` [Example 18, N-[3-(4-Methoxy-3-thiophene-3-ylbenzylidene)-2-oxo-2,3-dihydro-1H-indol-6-yl]-acetamide] it was 5.08; in that of `COc1ccc2c(c1)NC(=O)/C2=C/c1ccc(OC)c(-c2ccsc2)c1` [Example 64, 6-Methoxy-3-(4-methoxy-3-thiophen-3-ylbenzylidene)-1,3-dihydroindol-2-one], less than 4.00. For `COc1ccc(/C=C2\C(=O)Nc3cccc(C)c32)cc1C1CCCCC1` [Example 68, 3-(3-Cyclohexyl-4-methoxybenzylidene)-4-methyl-1,3-dihydroindol-2-one], the negative logarithm of the IC50 (pIC50) is less than 4.00.

With `COc1c(C(C)C)cc(/C=C2/C(=O)Nc3ccc(C(C)=O)cc32)cc1C(C)C` [Example 5, 5-Acetyl-3-(3,5-diisopropyl-4-methoxybenzylidene)-1,3dihydroindol-2-one], the negative-log IC50 (pIC50) was 5.19. In the case of `COc1ccc(/C=C2/C(=O)Nc3ccc(F)cc32)cc1C1CCCC1` [Example 11, 3-(3-Cyclopentyl-4-methoxybenzylidene)-5-fluoro-1,3-dihydroindol-2-one] it was 4.24. Next, `CC(=O)Nc1ccc2c(c1)NC(=O)/C2=C/c1ccc(OCCN2CCOCC2)c(-c2ccsc2)c1` [Example 50, N-{3-[4-(2-Morpholin-4-ylethoxy)-3-thiophen-3-ylbenzylidene]-2-oxo-2,3-dihydro-1H-indol-6-yl}-acetamide]: 4.17; `COc1ccc(C=C2C(=O)Nc3ccccc32)cc1-c1cccc(NC(C)=O)c1` [Example 29, N-[2′-Methoxy-5′-(2-oxo-1,2-dihydroindol-3-ylidenemethyl)-biphenyl-3-yl]-acetamide]: 4.77. `CC(=O)Nc1ccc2c(c1)NC(=O)/C2=C\c1ccc2c(c1)CCC(C)(C)O2` [Example 33, N-[3-(2,2-Dimethylchroman-6-ylmethylene)-2-oxo-2,3-dihydro-1H-indol-6-yl]-acetamide]: the pIC50 is 4.69. Next, `COc1ccc(/C=C2/C(=O)Nc3ccc(Br)cc32)cc1-c1ccccc1` [Example 13, 5-Bromo-3-(6-methoxybiphenyl-3-ylmethylene)-1,3-dihydroindol-2-one]: less than 4.00; `COc1ccc(C=C2C(=O)Nc3cc(NC(C)=O)ccc32)cc1-c1cccc(NC(C)=O)c1` (mixture of isomers) [Example 63, N-[3-(3′-Acetylamino-6-methoxybiphenyl-3-ylmethylene)-2-oxo-2,3-dihydro-1H-indol-6-yl]-acetamide]: less than 4.00; `COc1c(C(C)C)cc(/C=C2/C(=O)Nc3ccc(Br)cc32)cc1C(C)C` [Example 54, 5-Bromo-3-(3,5-diisopropyl-4-methoxybenzylidene)-1,3-dihydroindol-2-one]: 4.07. Next, `COc1ccc(/C=C2/C(=O)Nc3ccccc32)cc1C1CCCC1` [Example 10, 3-(3-Cyclopentyl-4-methoxybenzylidene)-1,3-dihydroindol-2-one]: 4.34; `COc1c(C(C)C)cc(/C=C2/C(=O)Nc3cc(NC(C)=O)ccc32)cc1C(C)C` [Example 3, N-[3-(3,5-Diisopropyl-4-methoxybenzylidene)-2-oxo-2,3-dihydro-1H-indol-6-yl]-acetamide]: 5.19. As to `COc1ccc(/C=C2/C(=O)Nc3ccc(F)cc32)cc1C(C)C` [Example 44, 5-Fluoro-3-(3-isopropyl-4-methoxybenzylidene)-1,3-dihydroindol-2-one], the negative logarithm of the IC50 (pIC50) is 4.27. In the case of `COc1c(C(C)C)cc(/C=C2/C(=O)Nc3cc(NC(=O)OC(C)(C)C)ccc32)cc1C(C)C` [Example 52, [3-(3,5-Diisopropyl-4-methoxybenzylidene)-2-oxo-2,3-dihydro-1H-indol-6-yl]-carbamic acid tert-butyl ester], the negative-log IC50 (pIC50) was 4.14. Regarding `COc1ccc(/C=C2/C(=O)Nc3ncccc32)cc1C1CCCCC1` [Example 72, 3-(3-Cyclohexyl-4-methoxybenzylidene)-1,3-dihydropyrrolo[2,3-b]pyridin-2-one], the pIC50 was less than 4.00.

Regarding `CC1(C)CCc2cc(/C=C3/C(=O)Nc4ccc(Cl)cc43)ccc2O1` [Example 15, 5-Chloro-3-(2,2-dimethyl-chroman-6-ylmethylene)-1,3-dihydroindol-2-one], the pIC50 was 4.72. Turning to `COC(=O)c1ccc2c(c1)/C(=C\c1cc(C(C)C)c(OC)c(C(C)C)c1)C(=O)N2` [Example 6, 3-(3,5-Diisopropyl-4-methoxybenzylidene)-2-oxo-2,3-dihydro-1H-indole-5-carboxylic acid methyl ester], the negative-log IC50 (pIC50) was 4.82.
